Data taken from ChEMBL document CHEMBL5126624, “Targeted Isolation of Anti-inflammatory Lignans from Justicia aequilabris by Molecular Networking Approach” (J Nat Prod, 2022).

What was measured:
[1] = Cytotoxicity in LPS-stimulated mouse RAW264.7 cells assessed as reduction in cell viability incubated for […] by alamar blue dye based colorimetric assay; type: toxicity; conditions: LPS-stimulated RAW264.7 cells
RAW264.7 [2] = test: Antiinflammatory activity in mouse RAW264.7 cells assessed as decrease in IFN-gamma and LPS-induced nitric oxide production after 24 hrs by ELISA; type: functional, cell-based; conditions: RAW264.7, 24 h
RAW264.7 [3] = test: Antiinflammatory activity in mouse RAW264.7 cells assessed as decrease in IFN-gamma and LPS-induced IL-1beta production by measuring IL-1beta level at 25 uM after 24 hrs by ELISA (reference value: 73.3 +/- 1.8 pg/mg); type: functional
RAW264.7 [4] = test: Antiinflammatory activity in mouse RAW264.7 cells assessed as decrease in IFN-gamma and LPS-induced IL-1beta production by measuring IL-1beta level at 12.5 uM after 24 hrs by ELISA (reference value: 73.3 +/- 1.8 pg/mg); type: functional
RAW264.7 [5] = test: Antiinflammatory activity in mouse RAW264.7 cells assessed as decrease in IFN-gamma and LPS-induced IL-1beta production by measuring IL-1beta level at 6.3 uM after 24 hrs by ELISA (reference value: 73.3 +/- 1.8 pg/mg); type: functional
RAW264.7 [6] = test: Antiinflammatory activity in mouse RAW264.7 cells assessed as decrease in IFN-gamma and LPS-induced IL-1beta production at 25 uM after 24 hrs by ELISA; type: functional
RAW264.7 [7] = test: Antiinflammatory activity in mouse RAW264.7 cells assessed as decrease in IFN-gamma and LPS-induced IL-1beta production by measuring IL-1beta level at 3.1 uM after 24 hrs by ELISA (reference value: 73.3 +/- 1.8 pg/mg); type: functional
RAW264.7 [8] = test: Antiinflammatory activity in mouse RAW264.7 cells assessed as decrease in IFN-gamma and LPS-induced IL-1beta production by measuring IL-1beta level at 50 uM after 24 hrs by ELISA (reference value: 73.3 +/- 1.8 pg/mg); type: functional
RAW264.7 [9] = test: Antiinflammatory activity in mouse RAW264.7 cells assessed as decrease in IFN-gamma and LPS-induced IL-1beta production at 50 uM after 24 hrs by ELISA; type: functional
RAW264.7 [10] = test: Antiinflammatory activity in mouse RAW264.7 cells assessed as decrease in IFN-gamma and LPS-induced IL-1beta production at 6.7 uM after 24 hrs by ELISA; type: functional
RAW264.7 [11] = test: Antiinflammatory activity in mouse RAW264.7 cells assessed as decrease in IFN-gamma and LPS-induced IL-1beta production by measuring IL-1beta level at 16.7 uM after 24 hrs by ELISA (reference value: 73.3 +/- 1.8 pg/mg); type: functional
RAW264.7 [12] = test: Antiinflammatory activity in mouse RAW264.7 cells assessed as decrease in IFN-gamma and LPS-induced IL-1beta production by measuring IL-1beta level at 8.4 uM after 24 hrs by ELISA (reference value: 73.3 +/- 1.8 pg/mg); type: functional
RAW264.7 [13] = test: Antiinflammatory activity in mouse RAW264.7 cells assessed as decrease in IFN-gamma and LPS-induced IL-1beta production by measuring IL-1beta level at 4.2 uM after 24 hrs by ELISA (reference value: 73.3 +/- 1.8 pg/mg); type: functional
RAW264.7 [14] = test: Antiinflammatory activity in mouse RAW264.7 cells assessed as decrease in IFN-gamma and LPS-induced IL-1beta production by measuring IL-1beta level at 2.1 uM after 24 hrs by ELISA (reference value: 73.3 +/- 1.8 pg/mg); type: functional
RAW264.7 [15] = test: Antiinflammatory activity in mouse RAW264.7 cells assessed as maximum decrease in IFN-gamma and LPS-induced IL-1beta production after 24 hrs by ELISA; type: functional
RAW264.7 [16] = test: Antiinflammatory activity in mouse RAW264.7 cells assessed as decrease in IFN-gamma and LPS-induced IL-1beta production by measuring IL-1beta level at 10 uM after 24 hrs by ELISA (reference value: 73.3 +/- 1.8 pg/mg); type: functional

Row | IC50 (RAW264.7 [2]) [µM] | Compound | CC50 at 24 h [1] [µM] | Activity (RAW264.7 [3]) [pg/mg] | Activity (RAW264.7 [4]) [pg/mg] | Activity (RAW264.7 [5]) [pg/mg] | Activity (RAW264.7 [11]) [pg/mg] | Activity (RAW264.7 [12]) [pg/mg] | Activity (RAW264.7 [13]) [pg/mg] | Activity (RAW264.7 [14]) [pg/mg] | also measured
1 | 173 | COc1cc(C[C@@H](CO)[C@H](COC(=O)CC(=O)O)Cc2ccc(O)c(OC)c2)ccc1O | 9.1 | 53.3 | 66 | 71.1 |  |  |  |  | Imax (RAW264.7 [6]): 27.3%; Activity (RAW264.7 [7]): 73.1 pg/mg
2 | > 200 | COc1cc(C[C@H]2COC(=O)[C@@H](C(=O)O)[C@@H](C)[C@@H](C(=O)O)C(=O)OC[C@@H]2Cc2ccc(O)c(OC)c2)ccc1O | 23.4 | 70.2 | 71.3 | 73.3 |  |  |  |  | Activity (RAW264.7 [8]): 56 pg/mg; Imax (RAW264.7 [9]): 23.5%
3 | 92 | C/C=C/C(=O)OC[C@H](Cc1ccc(O)c(OC)c1)[C@H](CO)Cc1ccc(O)c(OC)c1 | 7.3 |  |  |  | 49.4 | 65.7 | 69.8 | 74.1 | Imax (RAW264.7 [10]): 32.5%
4 | 132 | COc1cc(C[C@@H](CO)[C@H](CO)Cc2ccc(O)c(OC)c2)ccc1O [(+)-SECOISOLARICIRESINOL] |  |  |  |  | 73 | 72.8 | 73 | 74.9 | Imax (RAW264.7 [15]): 0%
5 |  | C[C@@H]1C[C@H]2[C@@H]3CCC4=CC(=O)C=C[C@]4(C)[C@@]3(F)[C@@H](O)C[C@]2(C)[C@@]1(O)C(=O)CO [DEXAMETHASONE] | 4.4 |  |  |  |  |  |  |  | Imax (RAW264.7 [16]): 47.9%
6 | 1.1 | CN(C)c1ccc(C(=C2C=CC(=[N+](C)C)C=C2)c2ccc(N(C)C)cc2)cc1 [GENTIAN VIOLET] |  |  |  |  |  |  |  |  | 
